Assay results as given in patent US20040171795A1, “Novel peptides” (priority 2000, published 2004).

Legend:
[1] = Measurement of CD spectrum; assay type: physicochemical; settings: aqueous solution solely containing an inorganic salt, pH 7, 35° C.
Experimental: The peptide dissolved in 10 mM phosphate buffer (pH=7) containing 50 mM NaCl was evaluated for its CD spectrum in the presence and in the absence of 5 mM SDS by using a circular dichroism spectrophotometer (J-500A, manufactured by JASCO). The cell length was 1 mm. The measurement was conducted at 35° C. for 6 times in total. FIGS. 7 to 9 are respectively views showing mean residue ellipticity in CD spectroscopy of the peptide of SEQ ID NO:1, the peptide of SEQ ID NO:4 and the peptide of SEQ ID NO:16. As evident in FIGS. 7 to 9, the mean residue ellipticity obtained in the presence of SDS was the so called W curve and local minimums were found in the areas at the wavelength of 205 to 210 nm and 220 to 225 nm, and α-helix structure was thereby confirmed.

plasmid (pUC119) = experiment: Binding ability to plasmid (electrophoresis); settings: charge ratio (+/−ratio) of 3
Experimental: The plasmid prepared by the procedure described in Example 7 (pUC119; final concentration, 20 μg/mL) and the peptides prepared by the procedure described in Examples 1 to 3 were mixed in 20 mM Tris HCl buffer (pH=7.2) containing 150 mM NaCl at a charge ratio (+/−ratio) of 0 to 3, and the mixture was allowed to stand at 37° C. for 30 minutes. Electrophoresis was then conducted on 1% agarose gel to thereby determine the binding of the plasmid and the peptide.
The +/−ratio (charge ratio) indicated in FIG. 11 is the ratio of the number (+) of the positively-charged groups in the peptide to the number (−) of negatively-charged groups in the plasmid. As evident in FIG. 11, the amount of plasmid that became bound to the peptide increased with the increase in the charge ratio (+/−ratio), and the plasmid was fully bound to the peptide at a charge ratio (+/−ratio) of 3. The peptides of SEQ ID NO:2 to SEQ ID NO:24 were also found to bind at a charge ratio (+/−ratio) of 3.

[2] = test system: cell (Vero, T24 or A549 of Example 9; not given); experiment: Nucleic acid-introducing ability, luciferase-expressing plasmid (procedure of Example 9); assay type: cell-based
Excerpt: A cell line established from monkey kidney (Vero cell) and a human bladder cancer cell (T24 cell) purchased from American Type Culture Collection (ATCC) and human lung cancer cell (A549 cell) purchased from Dainippon Pharmaceutical were inoculated on a 24 well culture plate (manufactured by NALGEN NUNC) at 1×10^5 cells/well. Vero cell and A549 cell were cultivated in DMEM (manufactured by Life Technologies Oriental) supplemented with 10% fetal bovine serum (hereinafter referred to as FBS, manufactured by NICHIREI), and T24 cell was cultivated in McCoy's 5a (manufactured by Life Technologies Oriental) supplemented with 10% FBS in 5% CO2 atmosphere at 37° C. for 24 hours. After removing the medium, opti-MEM (manufactured by Life Technologies Oriental) prepared to have the concentration of the luciferase-expressing plasmid prepared in Example 7 of 1 μg/mL and the concentration of the peptide prepared in Example 1 of 1.25, 2.5, or 5 μM was added, and the cells were cultivated for 5 hours. Next, in the case of Vero cell and A549 cell, the culture medium was replaced with DMEM supplemented with 10% FBS, and in the case of T24 cell, the medium was replaced with McCoy's 5a supplemented with 10% FBS, and cultivation was continued in 5% CO2 atmosphere and at 37° C. for another 24 hours. The luciferase activity expressed in the cell was then measured by the method instructed in luciferase assay system (manufactured by Promega). To be more specific, the cells were washed with phosphate-buffered saline (hereinafter referred to as PBS, manufactured by SIGMA), and the cells were lyzed with Passive Lysis Buffer attached to the kit. 20 μL of this cell lysate and 100 μL of the Luciferase Assay Reagent II attached to the kit was added to a fluorescence-measuring plate (Microlite™ 1 plate, manufactured by Dynatech), and after mixing, fluorescence was measured for 1 second by using a multilabel counter (ARVO™ SY1420 MULTILABEL COUNTER, manufactured by Wallac Beltold.
Concentration of the protein in the cell lysate was measured by mixing 8 μL of the cell lysate and 200 μL of the protein assay solution (manufactured by Biorad) with 792 μL of ultrapure water in a disposable cuvette (UV fluorescent cuvette A204X, manufactured by Funakoshi), allowing the mixture to stand for 5 minutes at room temperature, and measuring the absorption at 595 nm with a spectrophotometer (DU640, manufactured by Beckman). Bovine serum albumin (BSA) was used for the standard protein. By using the thus obtained results, count per 1 second per 1 mg of protein of the cell lysate was calculated to thereby use the count as the luciferase activity, and the highest count in the three conditions of different peptide concentration was designated the gene-introducing ability of the peptide.
It is to be noted that the nucleic acid-introducing ability was classified as described below on the bases of the fluorescent count per 1 mg of protein per 1 second (cps/mg protein).

nuclease Bal 31 = experiment: Nuclease resistance-imparting ability for P=O form oligonucleotide; assay type: biochemical; settings: 2 U Bal 31, 30° C., 60 minutes, peptide 50 μM, oligonucleotide 3 μM
Experimental: Nuclease resistance-imparting ability for natural (P═O form) oligonucleotide was evaluated. To be more specific, 2 U of nuclease Bal 31 (manufactured by Takara Shuzo) was added to 20 mM Tris-HCl buffer (pH=8) containing 50 μM of the peptide of SEQ ID NO:1 prepared in Example 1, 3 μM of P═O form oligonucleotide prepared in Example 6, 150 mM NaCl, 12 mM MgCl2, and 12 mM CaCl2, and the reaction was allowed to take place at 30° C. for 60 minutes. Next, the oligonucleotide which escaped from the decomposition was extracted with phenol/chloroform, and subjected to electrophoresis by the procedure described in Example 8 to stain the oligonucleotide.

[3] = Affinity by surface plasmon resonance (Biacore 2000), flow cell 2; assay type: binding; settings: SPR, HPA chip, 0.1 mg/mL BSA; compared with flow cell 1
Experimental: The specific affinity of the peptide for phosphatidyl serine was evaluated by means of surface plasmon resonance (SPR) using Biacore 2000 (manufactured by Biacore). To be more specific, phosphatidyl choline was immobilized on flow cell 1, and 50% of phosphatidyl serine and 50% of phosphatidyl choline were immobilized on flow cell 2 of HPA chip (manufactured by Biacore), and ability of the peptide to bind to the phospholipid was evaluated in the presence of 0.1 mg/mL BSA to thereby evaluate the affinity.

binding of plasmid to the peptide (plasmid (pUC119)): fully bound
Substance: SEQ ID NO: 1: peptide having the amino acid sequence of SEQ ID NO:1, made by solid phase synthesis (TRYLRIHPRSWVHQIALRLRYLRIHPRSWVHQIALRS; synthetic peptide using an automatic peptide synthesizer)
α-helix structure in CD spectrum in the absence of SDS [1]: do not take α-helix structure
Nucleic acid-introducing ability ([2]; class of fluorescent count per 1 mg of protein per 1 second, highest of peptide 1.25, 2.5, 5 μM, plasmid 1 μg/mL): 3+ (1,000,000 to less than 10,000,000)
ability of introducing the nucleic acid into a cell ([2]; procedure of Example 9, luciferase-expressing plasmid): found to have the ability of introducing the nucleic acid into a cell
nuclease resistance-imparting ability for natural (P═O form) oligonucleotide (nuclease Bal 31): found to exhibit nuclease resistance-imparting ability
binding to flow cell 2 (50% phosphatidyl serine, 50% phosphatidyl choline) [3]: stronger
